From ChEMBL document CHEMBL1201862, “PubChem BioAssay data set” (2004)
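1) Cells in 96-well plates. 2) Compound, 48 h, 5 concentrations. 3) Linear interpolation between surrounding doses. 4) Unreached endpoint = highest concentration. GI50 marks 50% less growth.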 Active and inactive are the calls of the source. No stated cut-off is given here; in the data, active = GI50 up to about 1.1 µM and inactive = higher.

Columns and labels:
Test in all cases: growth of human tumour cells (NCI), 48 h
HL-60 = test system: HL-60
COLO 205 = test system: COLO 205
OVCAR-5 = test system: OVCAR-5
ACHN = test system: ACHN
SNB-19 = test system: SNB-19
KM12 = test system: KM12
RXF 393 = test system: RXF 393
EKVX = test system: EKVX
SK-MEL-2 = test system: SK-MEL-2
786-0 = test system: 786-0
OVCAR-4 = test system: OVCAR-4
M14 = test system: M14
OVCAR-3 = test system: OVCAR-3
DU-145 = test system: DU-145
NCI/ADR-RES = test system: NCI/ADR-RES
UACC-62 = test system: UACC-62
NCI-H460 = test system: NCI-H460
SW-620 = test system: SW-620
HOP-92 = test system: HOP-92
PC-3 = test system: PC-3

Structure (SMILES)	GI50 (HL-60)	GI50 (COLO 205)	GI50 (OVCAR-5)	GI50 (ACHN)	GI50 (SNB-19)	GI50 (KM12)	GI50 (RXF 393)	GI50 (EKVX)	GI50 (SK-MEL-2)	GI50 (786-0)	GI50 (OVCAR-4)	GI50 (M14)	GI50 (OVCAR-3)	GI50 (DU-145)	GI50 (NCI/ADR-RES)	GI50 (UACC-62)	GI50 (NCI-H460)	GI50 (SW-620)	GI50 (HOP-92)	GI50 (PC-3)
N#[N+]c1cc2c(cc1Br)-c1ccccc1C2	51.4 µM (inactive)	> 100 µM (inactive)	> 100 µM (inactive)	> 100 µM (inactive)	71.3 µM (inactive)	> 100 µM (inactive)	78.3 µM (inactive)	24.5 µM (inactive)	83.9 µM (inactive)	> 100 µM (inactive)	> 100 µM (inactive)	> 100 µM (inactive)	46.9 µM (inactive)	> 100 µM (inactive)	> 100 µM (inactive)	44.9 µM (inactive)	> 100 µM (inactive)	> 100 µM (inactive)	11.9 µM (inactive)	
CCN(CC)C(=O)COc1cc2c(O)c3c(O)c(C)c4c(c13)C(=O)C(C)(OC=CC(OC)C(C)C(OC(C)=O)C(C)C(O)C(C)C(O)C(C)C=CC=C(C)C(=O)N2)O4 (centres undefined)			> 100 µM (inactive)	> 100 µM (inactive)	> 100 µM (inactive)	> 100 µM (inactive)	> 100 µM (inactive)	> 100 µM (inactive)	> 100 µM (inactive)	> 100 µM (inactive)	> 100 µM (inactive)	> 100 µM (inactive)	> 100 µM (inactive)	> 100 µM (inactive)	> 100 µM (inactive)	> 100 µM (inactive)	> 100 µM (inactive)	> 100 µM (inactive)	> 100 µM (inactive)	> 100 µM (inactive)
O=C(Cn1c(C(=O)/C=C/c2cccs2)nc2ccccc21)c1ccc(Cl)cc1	18.3 µM (inactive)	17.5 µM (inactive)	> 100 µM (inactive)	26.6 µM (inactive)	25.5 µM (inactive)	11.1 µM (inactive)	29.2 µM (inactive)		6 µM (inactive)	16.3 µM (inactive)	14.6 µM (inactive)	18.6 µM (inactive)	15.5 µM (inactive)	26.7 µM (inactive)	14 µM (inactive)	25.2 µM (inactive)	10.5 µM (inactive)	25.6 µM (inactive)	23.3 µM (inactive)	
Cc1cc(NC(=O)NC(=O)c2ccccc2NC(=O)CN)ccc1Oc1ncc(Br)cn1		0.249 µM (active)	12.3 µM (inactive)	9.44 µM (inactive)	0.929 µM (active)	0.401 µM (active)	0.0439 µM (active)	1.52 µM (inactive)	0.437 µM (active)	0.502 µM (active)	20 µM (inactive)	0.592 µM (active)	0.217 µM (active)	0.402 µM (active)	0.13 µM (active)	0.207 µM (active)	0.743 µM (active)	0.618 µM (active)	3.6 µM (inactive)	0.217 µM (active)
Cn1c(N)nc2c(nc(OCc3ccccc3)n2C2OC(CO)C(O)C2O)c1=O (centres undefined)	> 100 µM (inactive)	> 100 µM (inactive)	> 100 µM (inactive)	> 100 µM (inactive)	> 100 µM (inactive)	> 100 µM (inactive)	> 100 µM (inactive)	> 100 µM (inactive)	> 100 µM (inactive)	> 100 µM (inactive)	> 100 µM (inactive)	> 100 µM (inactive)	> 100 µM (inactive)	> 100 µM (inactive)		> 100 µM (inactive)	> 100 µM (inactive)	> 100 µM (inactive)	> 100 µM (inactive)	> 100 µM (inactive)
CC1=C(C#N)S(=O)(=O)c2c(oc(C)c2C)N1			> 100 µM (inactive)	> 100 µM (inactive)	> 100 µM (inactive)	> 100 µM (inactive)		> 100 µM (inactive)	> 100 µM (inactive)	> 100 µM (inactive)	> 100 µM (inactive)	> 100 µM (inactive)	> 100 µM (inactive)	> 100 µM (inactive)	> 100 µM (inactive)	> 100 µM (inactive)	> 100 µM (inactive)	> 100 µM (inactive)	> 100 µM (inactive)	> 100 µM (inactive)
CCN1C[C@]2(C)CC[C@H](OCc3ccccc3)C34C5C[C@@H]6CC[C@](O)(C(C[C@@H]32)C14)C5[C@H]6OCc1ccccc1 (some centres undefined)		42 µM (inactive)	> 100 µM (inactive)	32.4 µM (inactive)	> 100 µM (inactive)	38.5 µM (inactive)	53.1 µM (inactive)	44.7 µM (inactive)	83.9 µM (inactive)	> 100 µM (inactive)	85.1 µM (inactive)	46.9 µM (inactive)	35.6 µM (inactive)	> 100 µM (inactive)	> 100 µM (inactive)	> 100 µM (inactive)	31.2 µM (inactive)	> 100 µM (inactive)	> 100 µM (inactive)	21.7 µM (inactive)
